Results taken from US20250115620A1, “BRIDGED TRICYCLIC CARBAMOYLPYRIDONE COMPOUNDS AND USES THEREOF” (Gilead Sciences, Inc., priority 2022, published 2025).
Where two headings read alike, the source gives them in different places.

Assays:
pLAI reporter virus = experiment: microbe, parasite or virus in culture; assay type: cell-based, HIV; conditions: Human immunodeficiency virus 1, MT4, 72 h
in vitro = conditions: human; for CC50 at 5 days: uninfected MT-4 cells
HIV-1 (IIIB) = experiment: microbe, parasite or virus in culture; assay type: cell-based; conditions: Human immunodeficiency virus 1, IIIB, MT4, 120 h, read-out: MT4 EC50
Protocol: Compounds were tested in a high-throughput 384-well assay format for their ability to inhibit the replication of HIV-1 (IIIB) in MT-4 cells. Compounds were serially diluted (1:3) in DMSO on 384-well polypropylene plates and further diluted 200-fold into complete RPMI media (10% FBS, 1% P/S) using the Biotek Micro Flow and Labcyte ECHO acoustic dispenser. Each plate contained up to 8 test compounds, with negative (No Drug Control) and 5 μM AZT positive controls. MT-4 cells were pre-infected with 10 μL of either RPMI (mock-infected) or a fresh 1:250 dilution of HIV-1 IIIB concentrated virus stock. Infected and uninfected MT-4 cells were further diluted in complete RPMI media and added to each plate using a Micro Flow dispenser. After 5 days incubation in a humidified and temperature controlled incubator (37° C.), Cell Titer Glo (Promega) was added to the assay plates and chemiluminescence read using an Envision plate-reader.

[1] = HIV-1 (IIIB) in MT-4 cells, 5 days incubation, Cell Titer Glo

SMILES | EC50 (pLAI reporter virus; read-out: RLUC 50% HS EC50) | EC50 (pLAI reporter virus; read-out: RLUC CCM EC50) | CC50 at 5 days (in vitro) | EC50 (HIV-1 (IIIB); [1]) | CC50 (in vitro) | EC50 (HIV-1 (IIIB))
COC[C@@H]1CO[C@@]2(CC[C@H](C)N3C[C@H]2n2cc(C(=O)NCc4c(F)cc(F)cc4F)c(=O)c(O)c2C3=O)O1 (single isomer, unassigned) [168 (peak 1)] | 2 nM | 0.4 nM | 28900 nM | 1.1 nM | – | –
COC[C@@H]1CO[C@]2(CC[C@H](C)N3C[C@H]2n2cc(C(=O)NCc4c(F)cc(F)cc4F)c(=O)c(O)c2C3=O)O1 (single isomer, unassigned) [168 (peak 2)] | 16.4 nM | 0.6 nM | 37000 nM | 2 nM | – | –
C[C@H]1CC[C@@]2(OC[C@@H](Cc3ccccc3)O2)[C@H]2CN1C(=O)c1c(O)c(=O)c(C(=O)NCc3c(F)cc(F)cc3F)cn12 (single isomer, unassigned) [169 (peak 1)] | 10 nM | 1.4 nM | 39000 nM | 4.9 nM | – | –
C[C@H]1CC[C@]2(OC[C@@H](Cc3ccccc3)O2)[C@H]2CN1C(=O)c1c(O)c(=O)c(C(=O)NCc3c(F)cc(F)cc3F)cn12 (single isomer, unassigned) [169 (peak 2)] | 4 nM | 2 nM | 45100 nM | 4.3 nM | – | –
CO[C@H]1CS[C@]2(CC[C@H](C)N3C[C@H]2n2cc(C(=O)NCc4c(F)cc(F)cc4F)c(=O)c(O)c2C3=O)O1 (single isomer, unassigned) [170 (peak 1)] | 5 nM | 0.3 nM | 42000 nM | 1.3 nM | – | –
CO[C@@H]1CS[C@]2(CC[C@H](C)N3C[C@H]2n2cc(C(=O)NCc4c(F)cc(F)cc4F)c(=O)c(O)c2C3=O)O1 (single isomer, unassigned) [170 (peak 2)] | 2.6 nM | 0.2 nM | 42600 nM | 1.7 nM | – | –
CO[C@H]1CS[C@@]2(CC[C@H](C)N3C[C@H]2n2cc(C(=O)NCc4c(F)cc(F)cc4F)c(=O)c(O)c2C3=O)O1 (single isomer, unassigned) [170 (peak 3)] | 43.4 nM | 0.3 nM | 8240 nM | 1.2 nM | – | –
CO[C@@H]1CS[C@@]2(CC[C@H](C)N3C[C@H]2n2cc(C(=O)NCc4c(F)cc(F)cc4F)c(=O)c(O)c2C3=O)O1 (single isomer, unassigned) [170 (peak 4)] | 14.5 nM | 0.3 nM | 33100 nM | 1.7 nM | – | –
CC1=NO[C@@]2(CC[C@H](C)N3C[C@H]2n2cc(C(=O)NCc4ccc(F)cc4F)c(=O)c(O)c2C3=O)[C@H]1F (single isomer, unassigned) [Example 27 (peak 1)] | 175 nM | 0.2 nM | 33100 nM | 1.3 nM | – | –
CC1=NO[C@@]2(CC[C@H](C)N3C[C@H]2n2cc(C(=O)NCc4ccc(F)cc4F)c(=O)c(O)c2C3=O)[C@@H]1F (single isomer, unassigned) [Example 27 (peak 2)] | 160 nM | 0.3 nM | 45600 nM | 0.6 nM | – | –
C[C@H]1CC[C@]2(CC(=O)N(Cc3ccc(F)cc3)O2)[C@H]2CN1C(=O)c1c(O)c(=O)c(C(=O)NCc3c(F)cc(F)cc3F)cn12 (single isomer, unassigned) [Example 115] | 5.1 nM | 0.3 nM | ≥ 50000 nM | 1.2 nM | – | –
CC1=NO[C@]2(CC[C@H](C)N3C[C@H]2n2cc(C(=O)NCc4ccc(F)cc4F)c(=O)c(O)c2C3=O)C1 [Example 2, (3′S,5R,7′R)—N-(2,4-difluorobenzyl)-12′-hydroxy-3,3′-dimethyl-1′,11′-dioxo-1′,4′,5′,11′-tetrahydro-3′H,4H,7′H-spiro[isoxazole-5,6′-[2,7]methanopyrido[1,2-a][1,4]diazonine]-10′-carboxamide] | 9.2 nM | 2.6 nM | ≥ 50000 nM | 11.2 nM | – | –
CC1=NO[C@@]2(CC[C@H](C)N3C[C@H]2n2cc(C(=O)NCc4c(F)cc(F)cc4F)c(=O)c(O)c2C3=O)C1 [Example 3, (3′S,5S,7′R)-12′-hydroxy-3,3′-dimethyl-1′,11′-dioxo-N-(2,4,6-trifluorobenzyl)-1′,4′,5′,11′-tetrahydro-3′H,4H,7′H-spiro[isoxazole-5,6′-[2,7]methanopyrido[1,2-a][1,4]diazonine]-10′-carboxamide] | 71.2 nM | 0.2 nM | 20100 nM | 0.9 nM | – | –
CC1=NO[C@]2(CC[C@H](C)N3C[C@H]2n2cc(C(=O)NCc4c(F)cc(F)cc4F)c(=O)c(O)c2C3=O)C1 [Example 4, (3′S,5R,7′R)-12′-hydroxy-3,3′-dimethyl-1′,11′-dioxo-N-(2,4,6-trifluorobenzyl)-1′,4′,5′,11′-tetrahydro-3′H,4H,7′H-spiro[isoxazole-5,6′-[2,7]methanopyrido[1,2-a][1,4]diazonine]-10′-carboxamide] | 4.6 nM | 3 nM | ≥ 50000 nM | 5.7 nM | – | –
COCC1=NO[C@@]2(CC[C@H](C)N3C[C@H]2n2cc(C(=O)NCc4ccc(F)cc4F)c(=O)c(O)c2C3=O)C1 [Example 22, (3′S,5S,7′R)—N-(2,4-difluorobenzyl)-12′-hydroxy-3-(methoxymethyl)-3′-methyl-1′,11′-dioxo-1′,4′,5′,11′-tetrahydro-3′H,4H,7′H-spiro[isoxazole-5,6′-[2,7]methanopyrido[1,2-a][1,4]diazonine]-10′-carboxamide] | – | – | 23700 nM | 1.3 nM | – | –
C[C@H]1CC[C@]2(CNC(=O)C2)[C@H]2CN1C(=O)c1c(O)c(=O)c(C(=O)NCc3c(F)cc(F)cc3F)cn12 [Example 58, (3S,3′S,7′S)-12′-hydroxy-3′-methyl-1′,5,11′-trioxo-N-(2,4,6-trifluorobenzyl)-1′,4′,5′,11′-tetrahydro-3′H,7′H-spiro[pyrrolidine-3,6′-[2,7]methanopyrido[1,2-a][1,4]diazonine]-10′-carboxamide] | – | – | ≥ 50000 nM | 77.4 nM | – | –
C[C@H]1CC[C@@]2(CNC(=O)O2)[C@H]2CN1C(=O)c1c(O)c(=O)c(C(=O)NCc3c(F)cc(F)cc3F)cn12 [Example 59, (3′S,5R,7′R)-12′-hydroxy-3′-methyl-1′,2,11′-trioxo-N-(2,4,6-trifluorobenzyl)-1′,4′,5′,11′-tetrahydro-3′H,7′H-spiro[oxazolidine-5,6′-[2,7]methanopyrido[1,2-a][1,4]diazonine]-10′-carboxamide] | – | – | ≥ 50000 nM | 51.4 nM | – | –
CC1=NOC2(CC[C@H](C)N3C[C@H]2n2cc(C(=O)NCc4ccc(F)cc4F)c(=O)c(O)c2C3=O)N1N(C)C (stereo partly drawn) [Example 95, (3′S,7′R)—N-(2,4-difluorobenzyl)-4-(dimethylamino)-12′-hydroxy-3,3′-dimethyl-1′,11′-dioxo-1′,4′,5′,11′-tetrahydro-3′H,4H,7′H-spiro[[1,2,4]oxadiazole-5,6′-[2,7]methanopyrido[1,2-a][1,4]diazonine]-10′-carboxamide] | – | – | – | – | 24100 nM | 0.6 nM
C[C@H]1OC[C@]2(CC[C@H](C)N3C[C@H]2n2cc(C(=O)NCc4c(F)cc(F)cc4F)c(=O)c(O)c2C3=O)O1 [Example 132, (2S,3′S,4R,7′R)-12′-hydroxy-2,3′-dimethyl-1′,11′-dioxo-N-(2,4,6-trifluorobenzyl)-1′,4′,5′,11′-tetrahydro-3′H,7′H-spiro[[1,3]dioxolane-4,6′-[2,7]methanopyrido[1,2-a][1,4]diazonine]-10′-carboxamide] | – | – | 30300 nM | 1.4 nM | – | –
CC1=NO[C@@]2(CC[C@H](C)N3C[C@H]2n2cc(C(=O)NCc4c(F)cc(F)cc4F)c(=O)c(O)c2C3=O)S1 [Example 146, (3′S,5S,7′R)-12′-hydroxy-3,3′-dimethyl-1′,11′-dioxo-N-(2,4,6-trifluorobenzyl)-1′,4′,5′,11′-tetrahydro-3′H,7′H-spiro[[1,4,2]oxathiazole-5,6′-[2,7]methanopyrido[1,2-a][1,4]diazonine]-10′-carboxamide] | – | – | – | – | 16900 nM | 1.3 nM
CC1=NO[C@@]2(CC[C@H](C)N3C[C@H]2n2cc(C(=O)NCc4ncc(F)c(Cl)c4F)c(=O)c(O)c2C3=O)C1 [Example 150, (3′S,5S,7′R)—N-((4-chloro-3,5-difluoropyridin-2-yl)methyl)-12′-hydroxy-3,3′-dimethyl-1′,11′-dioxo-1′,4′,5′,11′-tetrahydro-3′H,4H,7′H-spiro[isoxazole-5,6′-[2,7]methanopyrido[1,2-a][1,4]diazonine]-10′-carboxamide] | – | – | 27000 nM | – | – | 2.1 nM
CC1=NO[C@@]2(CC[C@H](C)N3C[C@H]2n2cc(-c4nnc(Cc5c(F)cc(F)cc5F)s4)c(=O)c(O)c2C3=O)C1 [Example 152, (3′S,5S,7′R)-12′-hydroxy-3,3′-dimethyl-10′-(5-(2,4,6-trifluorobenzyl)-1,3,4-thiadiazol-2-yl)-4′,5′-dihydro-3′H,4H,7′H-spiro[isoxazole-5,6′-[2,7]methanopyrido[1,2-a][1,4]diazonine]-1′,11′-dione] | – | – | 14200 nM | – | – | 4.2 nM
CCn1c(CN2O[C@@]3(CC[C@H](C)N4C[C@H]3n3cc(C(=O)NCc5c(F)cc(F)cc5F)c(=O)c(O)c3C4=O)CC2=O)nc2ccccc21 [Example 164, (3′S,5S,7′R)-2-((1-ethyl-1H-benzo[d]imidazol-2-yl)methyl)-12′-hydroxy-3′-methyl-1′,3,11′-trioxo-N-(2,4,6-trifluorobenzyl)-1′,4′,5′,11′-tetrahydro-3′H,7′H-spiro[isoxazolidine-5,6′-[2,7]methanopyrido[1,2-a][1,4]diazonine]-10′-carboxamide] | – | – | 45700 nM | 3 nM | – | –
